Like-named read-outs stand apart in the source and are kept apart here.
How the values were obtained:
hMC5-R [1] = biological target: T1, hMC5-R; experiment: Competitive inhibition assay using [I125]-NDP-α-MSH, hMC5-R membranes; assay type: binding, human; details: for Ki: read-out: Ki (nM) (NDP-α-MSH) MC5-R
T1 construct: expressed in transfected cells; host or cells: HEK-293
Protocol: Competitive inhibition assay using [1125]-NDP-α-MSH. A competitive inhibition binding assay was conducted using membranes prepared from HEK-293 cells transfected to express hMC3-R, hMC4-R or hMC5-R, and from B-16 mouse melanoma cells (containing MC1-R) using 0.2 to 0.4 nM [I^125]-NDP-α-MSH (New England Nuclear) in 50 mM HEPES buffer containing 1 mM MgCl2, 2 mM CaCl2, and 5 mM KCl, at pH 7.2. In certain experiments, HEK-293 cells transfected to express hMC1-R were also employed. The assay tube also contained a chosen concentration of the test compound of this invention, typically a 1 μM concentration, for determining inhibition of the binding of [^1125]-NDP-α-MSH to its receptor. Non-specific binding was measured by inhibition of binding of [I^125]-NDP-α-MSH in the assay with the presence of 1 μM α-MSH.
The assay mixture was incubated for 90 minutes at room temperature, then filtered and the membranes washed three times with ice cold buffer. The filter was dried and counted in a gamma counter for remaining radioactivity bound to the membranes. 100% specific binding was defined as the difference in radioactivity (cpm) bound to cell membranes in the absence and presence of 1 μM α-MSH. The cpm obtained in presence of test compounds were normalized with respect to 100% specific binding to determine the percent inhibition of [125]-NDP-α-MSH binding. Each assay was conducted in triplicate and the actual mean values are described, with results less than 0% reported as 0%.

hMC4-R [2] = biological target: T2, hMC4-R; experiment: Competitive inhibition assay using [I125]-NDP-α-MSH, hMC4-R membranes; assay type: binding, human; details: for attenuation of binding of α-MSH and AgRP to MC4-R: both ligands (NDP-α-MSH and AgRP), summary
T2 construct: expressed in transfected cells; host or cells: HEK-293

hMC4-R [3] = tested on: T2, hMC4-R; assay type: binding, human; details: for Inhibition at 1 μM (AgRP) MC4-R: 1 μM compound
Summary of the method: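 Membranes from hMC4-R-expressing cells incubated 1 h at 37 °C with 0.2 nM [I^125]-AgRP (83-132) and increasing compound in 25 mM HEPES pH 7.5, 100 mM NaCl, 2 mM CaCl2, 2 mM MgCl2, 0.3 mM 1,10-phenanthroline, 0.5% BSA. Filtration, gamma counting; specific binding kept ≤10% of added counts.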

MC1-R [4] = biological target: T3, MC1-R; experiment: Competitive inhibition assay using [I125]-NDP-α-MSH, MC1-R membranes; assay type: binding, mouse; details: for Inhibition at 1 μM (NDP-α-MSH) MC1-R: 1 μM compound
T3 construct: other: 1 μM compound

hMC5-R [5] = tested on: T1, hMC5-R; experiment: cAMP functional assay, HEK-293 cells expressing hMC5-R; assay type: cell-based, human; details: cAMP assay at 1 μM
Protocol: (§1) General method for EC50 determination in functional activity assay. Functional evaluation of compounds at melanocortin receptors was performed by measuring the accumulation of intracellular cAMP in HEK-293 cells expressing hMC3-R, hMC4-R or hMC5-R, and in B-16 mouse melanoma cells expressing MC1-R. Cells suspended in Earle's Balanced Salt Solution containing 10 mM HEPES (pH 7.5), 5 mM MgCl2, 1 mM glutamine, 0.1% albumin and 0.6 mM 3-isobutyl-1-methyl-xanthine, a phosphodiesterase inhibitor, were plated in 96 well plates at a density of 0.5×10^5 cells per well. Cells were incubated with the test compounds in the presence or absence of α-MSH for 1 hour at 37° C. cAMP levels in the cell lysates were measured using an EIA kit (Amersham). Data analysis and EC50 values were determined using nonlinear regression analysis with Prism Graph-Pad software.
(§2) Functional status. The agonist/antagonist status with respect to MC1-R, MC-3R, MC4-R and MC5-R of certain compounds of the invention was determined.

hMC4-R [6] = tested on: T2, hMC4-R; experiment: cAMP functional assay in HEK-293 cells expressing MC4-R (agonist, neutral antagonist/Schild); assay type: cell-based, human; details: for intrinsic activity at MC4-R: NDP-α-MSH maximal stimulation = 1.0; for functional status at MC4-R: mostly at 1 μM
Summary of the method: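 Cells in EBSS/HEPES pH 7.5 with 0.3 mM IBMX, exposed to compound (0.05-5000 nM, 1% DMSO) for 1 h at 37 °C; cAMP by EIA, EC50 by nonlinear regression. Antagonism: 30 min compound pre-incubation, then 1 nM NDP-α-MSH for 1 h; Schild analysis over 0.005-5000 nM agonist gives pA2.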

hMC3-R [7] = biological target: T4, hMC3-R; experiment: Competitive inhibition assay using [I125]-NDP-α-MSH, hMC3-R membranes; assay type: binding, human; details: for Ki: read-out: Ki (nM) (NDP-α-MSH) MC3-R
T4 construct: expressed in transfected cells; host or cells: HEK-293
Summary of the method: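 Membranes from HEK-293 cells expressing hMC3-R, hMC4-R or hMC5-R, or from mouse B-16 melanoma cells (MC1-R), with 0.2–0.4 nM [125I]-NDP-α-MSH in 50 mM HEPES pH 7.2 with Mg2+, Ca2+, K+. Test compound typically 1 μM; 90 min, room temperature; filtration, gamma counting. Percent inhibition vs specific binding (1 μM α-MSH), triplicate mean, negatives as 0%.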

hMC3-R [8] = tested on: T4, hMC3-R; experiment: cAMP functional assay, HEK-293 cells expressing hMC3-R; assay type: cell-based, human; details: cAMP assay at 1 μM
Protocol: as §1, §2

MC1-R [9] = tested on: T5, MC1-R; experiment: cAMP functional assay, B-16 mouse melanoma cells expressing MC1-R; assay type: cell-based; details: cAMP assay at 1 μM
T5 construct: from B-16 mouse melanoma cells (containing MC1-R); endogenous in cells; host or cells: B-16 mouse melanoma cells
Protocol: as §1, §2

[10] = MC4-R membranes, Table 1, read-out: Ki (nM) I125-NPD-α-MSH
[11] = read-out: Ki (nM) (NDP-α-MSH) MC4-R
[12] = MC4-R membranes, Table 1, read-out: Ki (nM) I125-AgRP
[13] = cAMP assay, read-out: EC50 (nM) at MC4-R

Row | Compound | Ki (hMC5-R [1]) | Ki (hMC4-R [2]; [10]) | attenuation of binding of α-MSH and AgRP to MC4-R (hMC4-R [2]) | Ki (hMC4-R [2]; [11]) | Inhibition at 1 μM (AgRP) MC4-R (hMC4-R [3]) | Ki (hMC4-R [3]; [12]) | Ki (hMC4-R [3]; read-out: Ki (nM) (AgRP) MC4-R) | Ki (MC1-R [4]) | Inhibition at 1 μM (NDP-α-MSH) MC1-R (MC1-R [4]) | functional status at MC5-R (hMC5-R [5]) | functional status (pAg, Ag, Antag, Inactive) (hMC4-R [6]; MC4-R, Table 1) | EC50 (hMC4-R [6]; MC4-R, Table 1, read-out: EC50) | intrinsic activity at MC4-R (hMC4-R [6]) | EC50 (hMC4-R [6]; [13]) | Ki (hMC3-R [7]) | functional status at MC3-R (hMC3-R [8]) | functional status at MC1-R (MC1-R [9]) | functional status at MC4-R (hMC4-R [6]; cAMP assay) | also measured
1 | Cc1ccc(CCN2C[C@H](CCCNC(=N)N)N(C(=O)[C@H](N)Cc3ccc4ccccc4c3)C[C@H]2C)cc1 [Example 5, N-{3-[1-(2(R)-Amino-3-naphthalen-2-yl-propionyl)-5(R)-methyl-4-(2-p-tolyl-ethyl)-piperazin-2(S)-yl]-propyl}-guanidine] | 448 nM | 29 nM | attenuate the binding of both α-MSH and AgRP to MC4-R | 29 nM | 93% | 42 nM | 42 nM | 135 nM | 32% | partial agonist (intrinsic activity between 0.1 (10%) and 0.7 (70%) is classified as a partial agonist) | pAg (“pAg” means partial agonist) | 370 nM | 0.6 | 370 nM | 164 nM | no intrinsic activity (intrinsic activity below 0.1 (10%) is classified as inactive or having no intrinsic activity) | partial agonist (intrinsic activity between 0.1 (10%) and 0.7 (70%) is classified as a partial agonist) |  | 
2 | C[C@@H]1CN(C(=O)[C@H](N)Cc2ccc3ccccc3c2)[C@@H](CCCNC(=N)N)CN1C(=O)Cc1c[nH]c2ccccc12 [Example 6, N-{3-[1-(2(R)-Amino-3-naphthalen-2-yl-propionyl)-4-(2-1H-indol-3-yl-acetyl)-5(R)-methyl-piperazin-2(S)-yl]-propyl}-guanidine] | 1530 nM | 35 nM | attenuate the binding of both α-MSH and AgRP to MC4-R | 35 nM | 84% | 83 nM | 83 nM | 315 nM | 20% | partial agonist (intrinsic activity between 0.1 (10%) and 0.7 (70%) is classified as a partial agonist) | pAg (“pAg” means partial agonist) | > 1000 nM | 0.2 | > 1000 nM | 1820 nM | no intrinsic activity (intrinsic activity below 0.1 (10%) is classified as inactive or having no intrinsic activity) | no intrinsic activity (intrinsic activity below 0.1 (10%) is classified as inactive or having no intrinsic activity) |  | 
3 | C[C@@H]1CN(C(=O)[C@H](N)Cc2ccc3ccccc3c2)[C@@H](CCCNC(=N)N)CN1C(=O)CCCc1c[nH]c2ccccc12 [Example 7] | 271 nM | 90 nM | attenuate the binding of both α-MSH and AgRP to MC4-R | 90 nM | 82% | 133 nM | 133 nM | 1200 nM | 0% | no intrinsic activity (intrinsic activity below 0.1 (10%) is classified as inactive or having no intrinsic activity) | pAg (“pAg” means partial agonist) | 3800 nM | 0.4 | > 3000 nM | 657 nM | no intrinsic activity (intrinsic activity below 0.1 (10%) is classified as inactive or having no intrinsic activity) | no intrinsic activity (intrinsic activity below 0.1 (10%) is classified as inactive or having no intrinsic activity) |  | 
4 | C[C@@H]1CN(C(=O)[C@H](N)Cc2ccc3ccccc3c2)[C@@H](CCCNC(=N)N)CN1CCc1c[nH]c2ccccc12 [Example 8, N-(3-{1-(2(R)-Amino-3-naphthalen-2-yl-propionyl)-4-[2-(1H-indol-3-yl)-ethyl]-5(R)-methyl-piperazin-2(S)-yl}-propyl)-guanidine] | 808 nM | 37 nM | attenuate the binding of both α-MSH and AgRP to MC4-R | 37 nM | 89% | 56 nM | 56 nM | 162 nM | 2% | no intrinsic activity (intrinsic activity below 0.1 (10%) is classified as inactive or having no intrinsic activity) | Ag | > 1000 nM | 0.9 | > 100 nM | 2120 nM | no intrinsic activity (intrinsic activity below 0.1 (10%) is classified as inactive or having no intrinsic activity) | no intrinsic activity (intrinsic activity below 0.1 (10%) is classified as inactive or having no intrinsic activity) | full agonist | Inhibition at 1 μM (NDP-α-MSH) MC5-R (hMC5-R [1]; 1 μM compound): 51%; Inhibition at 1 μM (NDP-α-MSH) MC4-R (hMC4-R [2]; 1 μM compound): 93%; Inhibition at 1 μM (NDP-α-MSH) MC3-R (hMC3-R [7]; 1 μM compound): 27%
5 | NH2—(CH2)6—C(═O)-Ser(Bzl)-D-Phe(4-Cl)-Arg-Trp-Asp-NH2 [Example 14] |  |  |  |  |  |  |  | 760 nM | 35% | inactive | pAg (“pAg” means partial agonist) | 568 nM | 0.5 | 568 nM | 180 nM | partial agonist (intrinsic activity between 0.1 (10%) and 0.7 (70%) is classified as a partial agonist) | inactive | partial agonist (intrinsic activity between 0.1 (10%) and 0.7 (70%) is classified as a partial agonist) | 

From patent US20090076029A1 (Palatin Technologies, Inc., priority 2007, published 2009)
